Molecular target: T1, human FFAR1 (GPR40) (Homo sapiens, UniProt O14842)
T1 construct: Flag; expressed in transfected cells; host or cells: HEK293T
Assay: NFAT-RE-based reporter gene activity assay (Dual-Glo luciferase) for GPR40 agonistic activity in co-transfected HEK293T cells
Format: cell-based
Conditions: 4-hour treatment; for Efficacy (%): class symbols
In short: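 Agonism read as NFAT-RE-driven firefly luciferase over Renilla control (Dual-Glo) after 4 h compound exposure, top concentration 1 µM, 10 half-log steps.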

T1 sequence (O14842 whole entry): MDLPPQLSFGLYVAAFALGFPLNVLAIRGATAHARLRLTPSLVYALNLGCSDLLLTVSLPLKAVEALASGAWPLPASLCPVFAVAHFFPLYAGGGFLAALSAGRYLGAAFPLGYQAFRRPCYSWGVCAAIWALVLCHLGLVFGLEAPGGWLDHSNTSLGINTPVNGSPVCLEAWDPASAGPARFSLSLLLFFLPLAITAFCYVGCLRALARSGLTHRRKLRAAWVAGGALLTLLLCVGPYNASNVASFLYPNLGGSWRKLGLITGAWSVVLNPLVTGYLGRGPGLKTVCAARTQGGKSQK

Structure (SMILES)	EC50 [nM]	Efficacy (%)
COc1cccc(N2CCC(c3oc4cc([C@@H](CC(=O)O)C5CC5)ccc4c3C(CCC(C)C)c3ccccc3)CC2)c1 (stereo partly shown) [Compound 387]	10 to 100	†† (150 ≥ Efficacy (%) > 100)
COc1cccc(N2CCC(c3oc4cc([C@@H](CC(=O)O)C5CC5)ccc4c3-c3nc4ccccn4n3)CC2)c1 [Compound 153]	100 to 500	††† (Efficacy (%) > 150)
COc1ccc(F)c(N2CCC(c3oc4cc([C@@H](CC(=O)O)C5CC5)ccc4c3C(=O)Nc3cc(C)ccc3Cl)CC2)c1 [Compound 343]	≤ 10	††† (Efficacy (%) > 150)
COc1cccc(N2CCC(c3oc4cc(C(CC(=O)O)C5CC5)ccc4c3C(=O)NC3CCCCC3)CC2)c1 (stereo not shown) [Compound 344]	100 to 500	†† (150 ≥ Efficacy (%) > 100)
COc1cccc(N2CCC(c3oc4cc([C@@H](CC(=O)O)C5CC5)ccc4c3C(=O)Nc3cc(Cl)ccc3F)CC2)c1 [Compound 270]	10 to 100	††††
COc1ccccc1N1CCC(c2oc3cc(C(CC(=O)O)C4CC4)ccc3c2-c2cccc(C(C)(C)C)c2)CC1 (stereo not shown) [Compound 21]	100 to 500	†† (150 ≥ Efficacy (%) > 100)
COc1ccc(F)c(N2CCC(c3oc4cc(C(CC(=O)O)C5CC5)ccc4c3C(=O)Nc3ccc(C)cc3)CC2)c1 (stereo not shown) [Compound 321]	100 to 500	†† (150 ≥ Efficacy (%) > 100)
COc1ccc(F)c(N2CCC(c3oc4cc(C(CC(=O)O)C5CC5)ccc4c3-c3ccccc3C)CC2)c1 (stereo not shown) [Compound 159]	100 to 500	†† (150 ≥ Efficacy (%) > 100)
O=C(O)C[C@H](c1ccc2c(C(=O)Nc3ccccc3F)c(C3CCN(c4ccc5c(c4)OCO5)CC3)oc2c1)C1CC1 [Compound 331]	100 to 500	†† (150 ≥ Efficacy (%) > 100)
COc1cccc(N2CCC(c3oc4cc([C@@H](CC(=O)O)C5CC5)ccc4c3-c3ncc(C(C)(C)C)s3)CC2)c1 [Compound 113]	≤ 10	†† (150 ≥ Efficacy (%) > 100)
COc1ccc(F)c(N2CCC(c3oc4cc(CCC(=O)O)ccc4c3-c3cccc(C(C)(C)C)c3)CC2)c1 [Compound 231]	100 to 500	† (100 ≥ Efficacy (%) > 50)
COc1ccc(F)c(N2CCC(c3oc4cc(C(C)CC(=O)O)ccc4c3-c3cccc(C(C)(C)C)c3)CC2)c1 (stereo not shown) [Compound 232]	100 to 500	† (100 ≥ Efficacy (%) > 50)
COc1cccc(N2CCC(c3oc4cc(C(CC(=O)O)C5CC5)ccc4c3-c3cccc(NC(=O)CC(C)(C)C)n3)CC2)c1 (stereo not shown) [Compound 149]	100 to 500	†† (150 ≥ Efficacy (%) > 100)
COc1ccc(F)c(N2CCC(c3oc4cc(C(CC(=O)O)C5CC5)ccc4c3-c3ccc(C(C)C)cc3)CC2)c1 (stereo not shown) [Compound 163]	100 to 500	†† (150 ≥ Efficacy (%) > 100)
COc1cccc(N2CCC(c3oc4cc(C(CC(=O)O)C5CC5)ccc4c3-c3nnc(C4(C)CCCCC4)o3)CC2)c1 (stereo not shown) [Compound 140]	100 to 500	††† (Efficacy (%) > 150)
COc1cccc(N2CCC(c3oc4cc(C(CC(=O)O)C5CC5)ccc4c3C(=O)Nc3cccc(OC)c3F)CC2)c1 (stereo not shown) [Compound 258]	100 to 500	††† (Efficacy (%) > 150)
COc1ccc(F)c(N2CCC(c3oc4cc(C(CC(=O)O)C5CC5)ccc4c3-c3cccc(NC(C)C)c3)CC2)c1 (stereo not shown) [Compound 187]	100 to 500	†† (150 ≥ Efficacy (%) > 100)
CC(C)(C)c1ccc(-c2c(C3CCN(c4ccc5c(c4)OCO5)CC3)oc3cc(C(CC(=O)O)C4CC4)ccc23)cc1 (stereo not shown) [Compound 212]	100 to 500	†† (150 ≥ Efficacy (%) > 100)

Structure (SMILES)	EC50 [nM]	Efficacy (%)
COc1ccc(F)c(N2CCC(c3oc4cc([C@H](C5CC5)C(F)C(=O)O)ccc4c3-c3ccc(C(C)(C)C)cc3)CC2)c1 (stereo partly shown) [Compound 220]	100 to 500	††††
COc1cccc(N2CCC(c3oc4cc([C@@H](CC(=O)O)C5CC5)ccc4c3C(=O)Nc3cc(NC(C)=O)ccc3Cl)CC2)c1 [Compound 286]	100 to 500	†† (150 ≥ Efficacy (%) > 100)
COc1cccc(N2CCC(c3oc4cc([C@@H](CC(=O)O)C5CC5)ccc4c3C(=O)Nc3cc(C#N)ccc3Cl)CC2)c1 [Compound 282]	10 to 100	†† (150 ≥ Efficacy (%) > 100)
COc1cccc(N2CCC(c3oc4cc(C(CC(=O)O)C5CC5)ccc4c3C(=O)Nc3cc(C(C)(C)C)no3)CC2)c1 (stereo not shown) [Compound 301]	100 to 500	†† (150 ≥ Efficacy (%) > 100)
COc1cccc(N2CCC(c3oc4cc(C(CC(=O)O)C5CC5)ccc4c3-c3cn(C)nn3)CC2)c1 (stereo not shown) [Compound 120]	> 500	†† (150 ≥ Efficacy (%) > 100)
COc1cccc(N2CCC(c3oc4cc(C(CC(=O)O)C5CC5)ccc4c3C(=O)NCc3ccccc3)CC2)c1 (stereo not shown) [Compound 355]	100 to 500	†† (150 ≥ Efficacy (%) > 100)
CN1CCC(c2oc3cc(C(CC(=O)O)C4CC4)ccc3c2-c2cccc(C(C)(C)C)c2)CC1 (stereo not shown) [Compound 1]	> 1000	† (100 ≥ Efficacy (%) > 50)
COc1ccc(F)c(N2CCC(c3oc4cc(C(CC(=O)O)C5CC5)ccc4c3-c3cccc(N(C(C)=O)C(C)C)c3)CC2)c1 (stereo not shown) [Compound 191]	100 to 500	†† (150 ≥ Efficacy (%) > 100)
COc1cccc(N2CCC(c3oc4cc([C@@H](CC(=O)O)C5CC5)ccc4c3C(C)OCC(C)C)CC2)c1 (stereo partly shown) [Compound 409]	10 to 100	††† (Efficacy (%) > 150)
COc1ccc(F)c(N2CCC(c3oc4cc(C(CC(=O)O)C5CC5)ccc4c3-c3ccccc3)CC2)c1 (stereo not shown) [Compound 156]	100 to 500	†† (150 ≥ Efficacy (%) > 100)
COc1ccc(F)c(N2CCC(c3oc4cc(C(CC(=O)O)C5CC5)ccc4c3-c3ccc(C)cc3)CC2)c1 (stereo not shown) [Compound 160]	100 to 500	†† (150 ≥ Efficacy (%) > 100)
CCCCCCC(C)(C)c1nnc(-c2c(C3CCN(c4cccc(OC)c4)CC3)oc3cc(C(CC(=O)O)C4CC4)ccc23)o1 (stereo not shown) [Compound 452]	10 to 100	†† (150 ≥ Efficacy (%) > 100)
COc1ccc(F)c(N2CCC(c3oc4cc(C(CC(=O)O)C5CC5)ccc4c3C3=CCC(C(C)(C)C)CC3)CC2)c1 (stereo not shown) [Compound 380]	> 500	†† (150 ≥ Efficacy (%) > 100)
COc1cccc(N2CCC(c3oc4cc(C(CC(=O)O)C5CC5)ccc4c3C(=O)Nc3c(F)cccc3Br)CC2)c1 (stereo not shown) [Compound 264]	100 to 500	†† (150 ≥ Efficacy (%) > 100)
COc1cccc(N2CCC(c3oc4cc(C(CC(=O)O)C5CC5)ccc4c3-c3cccc(N(CC(C)(C)C)C(C)=O)n3)CC2)c1 (stereo not shown) [Compound 148]	100 to 500	†† (150 ≥ Efficacy (%) > 100)
COc1ccc(F)c(N2CCC(c3oc4cc(C(CC(=O)O)C5CC5)ccc4c3-c3ccc(C(=O)N4CCCC4)cc3)CC2)c1 (stereo not shown) [Compound 200]	100 to 500	†† (150 ≥ Efficacy (%) > 100)
COc1cccc(N2CCC(c3oc4cc([C@@H](CC(=O)O)C5CC5)ccc4c3C(=O)Nc3ccccc3Cl)CC2)c1F [Compound 322]	≤ 10	†† (150 ≥ Efficacy (%) > 100)
